Drawing on patent publication US20110312974A1, “HETEROARYL ANTAGONISTS OF PROSTAGLANDIN D2 RECEPTORS” (AMIRA PHARMACEUTICALS, INC., priority 2008, published 2011), this text covers IC50 for 16 compounds.

What is called IC50 is the point on the concentration scale where inhibition reaches its midpoint.

In the test the target is T1, human DP2 receptor (Homo sapiens, UniProt Q9Y5Y4).
T1 construct: expressed in transfected cells; membrane preparation
T1 sequence (Q9Y5Y4 1-395): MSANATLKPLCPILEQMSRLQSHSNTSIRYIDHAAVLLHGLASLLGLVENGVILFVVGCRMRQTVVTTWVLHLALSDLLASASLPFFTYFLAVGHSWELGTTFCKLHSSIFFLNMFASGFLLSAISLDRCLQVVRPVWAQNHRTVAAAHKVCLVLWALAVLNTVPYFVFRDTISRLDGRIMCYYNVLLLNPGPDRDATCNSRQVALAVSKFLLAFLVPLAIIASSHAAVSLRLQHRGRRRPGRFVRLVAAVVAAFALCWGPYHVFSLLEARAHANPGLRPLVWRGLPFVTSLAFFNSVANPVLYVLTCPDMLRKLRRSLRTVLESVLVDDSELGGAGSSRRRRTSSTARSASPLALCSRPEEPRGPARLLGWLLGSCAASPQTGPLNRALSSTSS
In words: DP2/CRTH2 radioligand binding assay using [3H]PGD2. To be noted: hDP2 (CRTH2) binding assay; membranes of HEK293 cells expressing recombinant human DP2, 1 nM [3H]PGD2. As to the method:
The ability of a compound to bind to the human DP2 receptor is assessed via a radioligand binding assay using [^3H]PGD2. HEK293 cells stably expressing recombinant human DP2 are resuspended in 10 mM Hepes, 7.4 containing 1 mM DTT, lysed and centrifuged at 75,000×g to pellet the membranes. The membranes are resuspended in 10 mM Hepes, 7.4 containing 1 mM DTT and 10% glycerol to approximately 5 mg protein/ml. Membranes (2-10 μg protein/well) are incubated in 96-well plates with 1 nM [^3H]PGD2 and test compound in Assay Buffer (50 mM Hepes, 10 mM MnCl2, 1 mM EDTA, plus or minus 0.2% human serum albumin, pH 7.4) for 60 minutes at room temperature. The reactions are terminated by rapid filtration through Whatman GF/C glass fibre filter plates. The filter plates were pre-soaked in 0.33% polythylenimine for 30 minutes at room temperature then washed in Wash Buffer (50 mM Hepes, 0.5 M NaCl pH 7.4) prior to harvesting. After harvesting, the filter plates are washed 3 times with 1 ml cold Wash Buffer then dried. Scintillant is then added to the plates and the radioactivity retained on the filters is determined on a Packard TopCount (Perkin Elmer). Specific binding is determined as total radioactive binding minus non-specific binding in the presence of 10 μM PGD2. IC50s were determined using GraphPad prism analysis of drug titration curves.
Turning to `COCC(=O)N(Cc1cnc(C)cn1)Cc1cc(C(F)(F)F)ccc1-c1cncc(CC(=O)O)c1` [Compound 1-60, [5-(2-{[N-(2-Methoxy-acetyl)-N-(5-methyl-pyrazin-2-ylmethyl)-amino]-methyl}-4-trifluoromethyl-phenyl)-pyridin-3-yl]-acetic acid], the IC50 was 300 to 1000 nM. Consider `CC(=O)N(Cc1cnc(C)cn1)Cc1cc(C(F)(F)F)ccc1-c1cncc(CC(=O)O)c1` [Compound 1-61, [5-(2-{[N-Acetyl-N-(5-methyl-pyrazin-2-ylmethyl)-amino]-methyl}-4-trifluoromethyl-phenyl)-pyridin-3-yl]-acetic acid], for which the IC50 was below 300 nM.

Consider `CC(=O)N(Cc1ccc(C(F)(F)F)nc1)Cc1cc(C(F)(F)F)ccc1-c1cncc(CC(=O)O)c1` [Compound 1-62, [5-(2-{[N-Acetyl-N-(6-trifluoromethyl-pyridin-3-ylmethyl)-amino]-methyl}-4-trifluoromethyl-phenyl)-pyridin-3-yl]-acetic acid], for which the IC50 was below 300 nM. For `O=C(O)Cc1cncc(-c2ccc(C(F)(F)F)cc2CN(CCc2ccccn2)C(=O)C2CC2)c1` [Compound 1-64, [5-(2-{[N-Cyclopropanecarbonyl-N-(2-pyridin-2-yl-ethyl)-amino]-methyl}-4-trifluoromethyl-phenyl)-pyridin-3-yl]-acetic acid] the value was above 1000 nM; for `O=C(O)Cc1cncc(-c2ccc(C(F)(F)F)cc2CN(CCc2cccnc2)C(=O)C2CC2)c1` [Compound 1-65, [5-(2-{[N-Cyclopropanecarbonyl-N-(2-pyridin-3-yl-ethyl)-amino]-methyl}-4-trifluoromethyl-phenyl)-pyridin-3-yl]-acetic acid], 300 to 1000 nM. For `O=C(O)Cc1cncc(-c2ccc(C(F)(F)F)cc2CN(CCc2ccncc2)C(=O)C2CC2)c1` [Compound 1-66, [5-(2-{[N-Cyclopropanecarbonyl-N-(2-pyridin-4-yl-ethyl)-amino]-methyl}-4-trifluoromethyl-phenyl)-pyridin-3-yl]-acetic acid] the value was above 1000 nM; for `CCN(Cc1cc(C(F)(F)F)ccc1-c1cc(CC(=O)O)cnc1OCc1ccccc1)C(=O)C1CC1` [Compound 1-68, (6-Benzyloxy-5-{2-[(N-cyclopropanecarbonyl-N-ethyl-amino)-methyl]-4-trifluoromethyl-phenyl}-pyridin-3-yl)-acetic acid], below 300 nM.

For the compound `CCN(Cc1cc(C(F)(F)F)ccc1-c1cc(CC(=O)O)cnc1OCC1CC1)C(=O)C1CC1` [Compound 1-69, (5-{2-[(N-Cyclopropanecarbonyl-N-ethyl-amino)-methyl]-4-trifluoromethyl-phenyl}-6-cyclopropylmethoxy-pyridin-3-yl)-acetic acid], the IC50 was below 300 nM.

Regarding `CCN(Cc1cc(C(F)(F)F)ccc1-c1cc(CC(=O)O)cnc1OCc1csc(C)n1)C(=O)C1CC1` [Compound 1-70, [5-{2-[(N-Cyclopropanecarbonyl-N-ethyl-amino)-methyl]-4-trifluoromethyl-phenyl}-6-(2-methyl-thiazol-4-ylmethoxy)-pyridin-3-yl]-acetic acid], the concentration for half-maximal inhibition (IC50) was below 300 nM.

With `CCN(Cc1cc(C(F)(F)F)ccc1-c1cc(CC(=O)O)cnc1-c1ccccc1)C(=O)C1CC1` [Compound 1-76, (5-{2-[(N-Cyclopropanecarbonyl-N-ethyl-amino)-methyl]-4-trifluoromethyl-phenyl}-6-phenyl-pyridin-3-yl)-acetic acid], the IC50 was above 1000 nM. As for `CCN(Cc1cc(C(F)(F)F)ccc1-c1cncc(CC(=O)O)c1)S(=O)(=O)c1cccc2c(N(C)C)cccc12` [Compound 1-77, [5-(2-{[N-(5-Dimethylamino-naphthalene-1-sulfonyl)-N-ethyl-amino]-methyl}-4-trifluoromethyl-phenyl)-pyridin-3-yl]-acetic acid], the figure is below 300 nM; as for `CCNCc1cc(C(F)(F)F)ccc1-c1cncc(CC(=O)O)c1` [Compound 1-78, [5-(2-Ethylaminomethyl-4-trifluoromethyl-phenyl)-pyridin-3-yl]-acetic acid], above 1000 nM; as for `C[C@H]1[C@@H](c2ccccc2)OC(=O)N1Cc1cc(C(F)(F)F)ccc1-c1cncc(CC(=O)O)c1` [Compound 2-1, {5-[2-((4S,5R)-4-Methyl-2-oxo-5-phenyl-oxazolidin-3-ylmethyl)-4-trifluoromethyl-phenyl]-pyridin-3-yl}-acetic acid], below 300 nM. As for `CCN(Cc1cc(C(F)(F)F)ccc1-c1cnn(CC(=O)O)c1)C(=O)C1CC1` [Compound 3-1, (4-{2-[(N-Cyclopropanecarbonyl-N-ethyl-amino)-methyl]-4-trifluoromethyl-phenyl}-pyrazol-1-yl)-acetic acid], the figure is below 300 nM; as for `CCN(Cc1cc(C(F)(F)F)ccc1-c1c(C)nn(CC(=O)O)c1C)C(=O)C1CC1` [Compound 3-2, (4-{2-[(N-Cyclopropanecarbonyl-N-ethyl-amino)-methyl]-4-trifluoromethyl-phenyl}-3,5-dimethyl-pyrazol-1-yl)-acetic acid], above 1000 nM. As to `Cc1nn(CC(=O)O)c(C)c1-c1ccc(C(F)(F)F)cc1CN(Cc1ccccc1)C(=O)C1CC1` [Compound 3-3, (4-{2-[(N-Benzyl-N-cyclopropanecarbonyl-amino)-methyl]-4-trifluoromethyl-phenyl}-3,5-dimethyl-pyrazol-1-yl)-acetic acid], the IC50 is below 300 nM.
